Assay results published in ChEMBL document CHEMBL4819069, “Discovery of multifunctional anti-Alzheimer's agents with a unique mechanism of action including inhibition of the enzyme butyrylcholinesterase and γ-aminobutyric acid transporters” (Eur J Med Chem, 2021).
Active and inactive are the calls of the source. The calls are words filed in the database; no cut-off is given here.

What was measured:
[1] = target: Amyloid-beta precursor protein (Homo sapiens) (UniProt P05067); assay: Inhibition of HFIP-pretreated amyloid beta (1 to 42) (unknown origin) aggregation at 10 uM after 36 to 48 hrs by thioflavin-T fluorescence assay relative to control; conditions: time 36-48 hrs
Chain of Amyloid-beta precursor protein (Homo sapiens) (P05067 whole entry): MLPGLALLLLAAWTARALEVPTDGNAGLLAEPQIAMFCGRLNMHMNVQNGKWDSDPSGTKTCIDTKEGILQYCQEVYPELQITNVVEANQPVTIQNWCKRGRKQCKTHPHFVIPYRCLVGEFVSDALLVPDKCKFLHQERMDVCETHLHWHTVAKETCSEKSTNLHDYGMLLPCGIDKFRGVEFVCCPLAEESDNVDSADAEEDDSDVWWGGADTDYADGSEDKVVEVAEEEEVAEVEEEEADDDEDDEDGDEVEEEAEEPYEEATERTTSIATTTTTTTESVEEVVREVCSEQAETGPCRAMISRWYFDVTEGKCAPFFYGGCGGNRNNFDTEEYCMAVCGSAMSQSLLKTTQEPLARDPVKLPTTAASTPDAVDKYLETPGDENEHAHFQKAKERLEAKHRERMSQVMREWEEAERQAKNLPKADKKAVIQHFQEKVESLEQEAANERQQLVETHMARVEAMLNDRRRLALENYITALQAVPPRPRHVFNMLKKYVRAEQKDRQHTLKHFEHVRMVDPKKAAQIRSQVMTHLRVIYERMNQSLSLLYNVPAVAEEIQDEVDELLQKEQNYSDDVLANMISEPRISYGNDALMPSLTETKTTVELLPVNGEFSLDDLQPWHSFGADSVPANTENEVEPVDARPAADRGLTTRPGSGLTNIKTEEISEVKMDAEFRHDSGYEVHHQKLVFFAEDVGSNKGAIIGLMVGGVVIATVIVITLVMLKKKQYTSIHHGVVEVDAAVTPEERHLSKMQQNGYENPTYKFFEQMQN

[2] = target: Acetylcholinesterase (Electrophorus electricus) (UniProt O42275); assay: Inhibition of electric eel AChE at 10 uM using acetylthiocholine as substrate preincubated for 5 mins followed by substrate addition and measured after 5 mins by Ellman's method relative to control; conditions: time 10.0 min
Chain of Acetylcholinesterase (Electrophorus electricus) (O42275 24-633 limits assumed): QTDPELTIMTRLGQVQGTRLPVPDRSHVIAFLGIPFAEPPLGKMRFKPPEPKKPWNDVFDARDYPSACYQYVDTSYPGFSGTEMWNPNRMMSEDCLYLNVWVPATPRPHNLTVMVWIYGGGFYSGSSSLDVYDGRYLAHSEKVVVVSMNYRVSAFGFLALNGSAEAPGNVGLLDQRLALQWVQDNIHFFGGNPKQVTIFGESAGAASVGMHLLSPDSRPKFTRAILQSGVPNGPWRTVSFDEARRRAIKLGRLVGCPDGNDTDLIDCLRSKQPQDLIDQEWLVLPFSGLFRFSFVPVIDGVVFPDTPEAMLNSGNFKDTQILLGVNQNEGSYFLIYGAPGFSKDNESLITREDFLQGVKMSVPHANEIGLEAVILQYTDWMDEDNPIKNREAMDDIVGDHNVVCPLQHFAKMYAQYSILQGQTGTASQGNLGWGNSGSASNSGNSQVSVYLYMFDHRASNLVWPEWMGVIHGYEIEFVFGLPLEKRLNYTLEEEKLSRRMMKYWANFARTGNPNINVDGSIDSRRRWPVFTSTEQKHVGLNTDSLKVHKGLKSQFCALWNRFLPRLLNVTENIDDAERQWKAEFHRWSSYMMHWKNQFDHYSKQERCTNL

[3] = Hepatotoxicity in human HepG2 cells at 50 to 100 uM incubated for 72 hrs by MTS assay; type: cell-based; conditions: hepg2, 72 h, dose 50-100 µM
[4] = Hepatotoxicity in human HepG2 cells at 1 uM incubated for 72 hrs by MTS assay; type: cell-based; conditions: hepg2, 72 h
[5] = Metabolic stability in human liver microsomes assessed as parent compound remaining after 120 mins in presence of NADPH regeneration system by UPLC/MS anlaysis; type: ADME, Microsome; conditions: read-out: Stabilty
[6] = target: Cytochrome P450 3A4 (Homo sapiens, UniProt P08684); assay: Inhibition of CYP3A4 (unknown origin) at 10 uM; type: ADME
[7] = target: Cytochrome P450 2D6 (Homo sapiens, UniProt P10635); assay: Inhibition of CYP2D6 (unknown origin) at 10 uM; type: ADME
[8] = target: Cholinesterase (Equus caballus, UniProt P81908)
Chain of Cholinesterase (Equus caballus, UniProt P81908) (P81908 whole entry): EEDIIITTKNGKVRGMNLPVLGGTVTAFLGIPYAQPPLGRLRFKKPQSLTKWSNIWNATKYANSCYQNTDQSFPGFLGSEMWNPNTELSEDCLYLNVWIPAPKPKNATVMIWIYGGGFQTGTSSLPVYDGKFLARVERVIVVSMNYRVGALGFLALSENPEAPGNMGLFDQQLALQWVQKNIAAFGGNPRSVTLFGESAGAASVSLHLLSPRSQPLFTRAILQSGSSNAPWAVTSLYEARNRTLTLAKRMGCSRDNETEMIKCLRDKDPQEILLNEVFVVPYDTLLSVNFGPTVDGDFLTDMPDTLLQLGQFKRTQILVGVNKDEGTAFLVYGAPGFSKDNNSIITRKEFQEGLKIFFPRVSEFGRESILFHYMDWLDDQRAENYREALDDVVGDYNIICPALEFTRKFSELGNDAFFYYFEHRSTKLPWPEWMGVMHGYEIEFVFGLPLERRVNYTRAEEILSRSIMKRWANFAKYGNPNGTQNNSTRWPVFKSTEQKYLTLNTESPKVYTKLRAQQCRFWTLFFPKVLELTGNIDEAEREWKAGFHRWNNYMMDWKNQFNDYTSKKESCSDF
Description: Inhibition of equine serum BuChE using butyrylthiocholine as substrate preincubated for 5 mins followed by substrate addition and measured after 5 mins by Ellman's method

[9] = target: T1, Cholinesterase (Homo sapiens, UniProt P06276)
T1 sequence (P06276 whole entry): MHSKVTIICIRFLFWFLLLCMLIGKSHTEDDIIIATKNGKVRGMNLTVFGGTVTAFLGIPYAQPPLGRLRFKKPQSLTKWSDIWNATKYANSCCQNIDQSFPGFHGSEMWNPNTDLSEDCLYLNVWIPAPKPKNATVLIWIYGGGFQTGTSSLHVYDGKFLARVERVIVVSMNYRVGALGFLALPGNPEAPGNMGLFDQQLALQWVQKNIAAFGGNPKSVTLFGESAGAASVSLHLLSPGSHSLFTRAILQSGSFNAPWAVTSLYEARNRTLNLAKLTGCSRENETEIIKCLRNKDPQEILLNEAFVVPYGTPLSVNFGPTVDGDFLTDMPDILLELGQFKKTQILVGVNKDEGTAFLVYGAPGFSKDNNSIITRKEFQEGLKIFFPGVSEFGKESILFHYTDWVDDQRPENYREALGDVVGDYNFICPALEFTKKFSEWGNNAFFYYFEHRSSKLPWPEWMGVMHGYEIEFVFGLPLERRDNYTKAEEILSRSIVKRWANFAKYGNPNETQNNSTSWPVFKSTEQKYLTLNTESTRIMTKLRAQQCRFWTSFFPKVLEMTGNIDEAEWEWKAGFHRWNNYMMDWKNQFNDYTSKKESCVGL
Description: Inhibition of human BuchE using butyrylthiocholine as substrate preincubated for 5 mins followed by substrate addition and measured after 5 mins by Ellman's method

[10] = target: T2, Beta-secretase 1 (Homo sapiens, UniProt P56817)
T2 sequence (P56817 whole entry): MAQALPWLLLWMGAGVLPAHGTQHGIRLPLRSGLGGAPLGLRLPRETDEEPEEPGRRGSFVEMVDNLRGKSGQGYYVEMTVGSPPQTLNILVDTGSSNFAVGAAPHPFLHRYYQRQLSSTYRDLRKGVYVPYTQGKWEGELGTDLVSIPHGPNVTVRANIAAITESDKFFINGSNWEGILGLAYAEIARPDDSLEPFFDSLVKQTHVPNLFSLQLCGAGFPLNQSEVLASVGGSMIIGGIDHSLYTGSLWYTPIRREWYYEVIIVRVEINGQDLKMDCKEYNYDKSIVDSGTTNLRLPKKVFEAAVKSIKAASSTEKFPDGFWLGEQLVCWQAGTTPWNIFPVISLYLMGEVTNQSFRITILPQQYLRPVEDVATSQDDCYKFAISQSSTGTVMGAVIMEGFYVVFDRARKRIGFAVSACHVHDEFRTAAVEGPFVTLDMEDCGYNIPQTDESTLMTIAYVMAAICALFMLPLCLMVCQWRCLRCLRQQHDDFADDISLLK

[11] = target: T1, Cholinesterase; assay: Inhibition of human BuchE at 1 uM using butyrylthiocholine as substrate preincubated for 5 mins followed by substrate addition and measured after 5 mins by Ellman's method relative to control; conditions: time 10.0 min
[12] = target: T2, Beta-secretase 1; conditions: dose 50.0 µM, time 60.0 min
[13] = target: Sodium- and chloride-dependent GABA transporter 1 (Mus musculus) (UniProt P31648); assay: Inhibition of mouse GAT1 expressed in HEK293 cell line assessed as reduction in [3H]GABA uptake at 100 uM incubated for 10 mins relative to control; type: cell-based
[14] = target: T3, GABA transporter 3 (Mus musculus) (UniProt P31649); assay: Inhibition of mouse GAT2 expressed in HEK293 cell line assessed as reduction in [3H]GABA uptake at 100 uM incubated for 10 mins relative to control; type: cell-based
T3 sequence (whole entry): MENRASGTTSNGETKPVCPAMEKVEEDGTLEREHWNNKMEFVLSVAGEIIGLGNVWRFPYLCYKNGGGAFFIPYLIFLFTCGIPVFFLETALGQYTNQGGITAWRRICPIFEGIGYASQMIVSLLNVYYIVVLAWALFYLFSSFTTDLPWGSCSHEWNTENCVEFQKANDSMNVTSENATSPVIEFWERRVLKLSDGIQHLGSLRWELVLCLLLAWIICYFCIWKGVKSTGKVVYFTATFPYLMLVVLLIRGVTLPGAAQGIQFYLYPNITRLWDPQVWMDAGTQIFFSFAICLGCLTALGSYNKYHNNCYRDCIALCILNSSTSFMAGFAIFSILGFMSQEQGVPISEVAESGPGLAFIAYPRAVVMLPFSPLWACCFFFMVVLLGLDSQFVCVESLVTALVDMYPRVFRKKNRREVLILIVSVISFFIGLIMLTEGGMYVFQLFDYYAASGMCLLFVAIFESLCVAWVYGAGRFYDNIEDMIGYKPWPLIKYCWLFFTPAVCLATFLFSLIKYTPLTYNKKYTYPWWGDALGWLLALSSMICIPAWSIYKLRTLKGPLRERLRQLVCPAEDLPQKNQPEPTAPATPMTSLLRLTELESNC

[15] = target: T4, GABA transporter 4 (Mus musculus) (UniProt P31650); assay: Inhibition of mouse GAT3 expressed in HEK293 cell line assessed as reduction in [3H]GABA uptake at 100 uM incubated for 10 mins relative to control; type: cell-based
T4 sequence (whole entry): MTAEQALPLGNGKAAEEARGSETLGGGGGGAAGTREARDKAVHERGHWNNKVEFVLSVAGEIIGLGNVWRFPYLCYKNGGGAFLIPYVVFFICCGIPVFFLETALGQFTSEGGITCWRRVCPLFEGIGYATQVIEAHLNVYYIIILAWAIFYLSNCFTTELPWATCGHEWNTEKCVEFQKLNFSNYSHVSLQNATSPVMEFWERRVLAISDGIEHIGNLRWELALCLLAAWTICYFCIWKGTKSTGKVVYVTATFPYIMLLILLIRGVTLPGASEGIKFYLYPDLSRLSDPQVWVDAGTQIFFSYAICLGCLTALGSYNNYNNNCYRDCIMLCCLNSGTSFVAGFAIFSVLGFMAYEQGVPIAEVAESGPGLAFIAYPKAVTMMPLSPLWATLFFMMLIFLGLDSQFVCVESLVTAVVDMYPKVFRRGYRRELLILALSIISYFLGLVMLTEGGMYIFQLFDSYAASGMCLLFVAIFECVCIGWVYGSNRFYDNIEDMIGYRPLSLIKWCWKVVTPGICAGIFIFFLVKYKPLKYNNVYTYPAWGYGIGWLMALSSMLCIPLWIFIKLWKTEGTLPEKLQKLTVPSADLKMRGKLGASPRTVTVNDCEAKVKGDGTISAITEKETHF

[16] = target: T4, GABA transporter 4 (Mus musculus); assay: Inhibition of mouse GAT4 expressed in HEK293 cell line assessed as reduction in [3H]GABA uptake at 100 uM incubated for 10 mins relative to control; type: cell-based
[17] = target: Sodium- and chloride-dependent GABA transporter 1 (Mus musculus) (UniProt P31648); assay: Inhibition of NO711 binding to mouse GAT1 expressed in HEK cell membranes at 100 uM incubated for 40 mins in presence of NO711 by LC-ESI-MS/MS analysis relative to control; conditions: Membrane
[18] = target: Microtubule-associated protein tau (Homo sapiens) (UniProt P10636); assay: Inhibition of tau aggregation (unknown origin) at 10 uM after 72 hrs by thioflavin-T fluorometric assay relative to control
[19] = Neurotoxicity against mouse HT22 cells assessed as cell viability at 10 uM incubated for 24 hrs by MTT assay; type: cell-based, HT-22; conditions: for Activity: ht-22, 24 h, 10 µM
[20] = Neurotoxicity against mouse HT22 cells assessed as cell viability at 30 uM incubated for 24 hrs by MTT assay; type: cell-based, HT-22; conditions: for Activity: ht-22, 24 h, 30 µM
[21] = target: T5, Sodium- and chloride-dependent GABA transporter 1 (Mus musculus, UniProt P31648); assay: Inhibition of mouse GAT1 expressed in HEK293 cell line assessed as reduction in [3H]GABA uptake incubated for 10 mins; type: cell-based
[22] = target: T6, GABA transporter 4 (Mus musculus, UniProt P31650); assay: Inhibition of mouse GAT4 expressed in HEK293 cell line assessed as reduction in [3H]GABA uptake incubated for 10 mins; type: cell-based
T6 sequence (P31650 whole entry): T4 sequence (whole entry)

[23] = target: T5, Sodium- and chloride-dependent GABA transporter 1; assay: Inhibition of NO711 binding to mouse GAT1 expressed in HEK cell membranes incubated for 40 mins in presence of NO711 by LC-ESI-MS/MS analysis; set-up: species or system Membrane
[24] = target: Cholinesterase (Equus caballus) (UniProt P81908); assay: Inhibition of equine serum BuChE at 10 uM using butyrylthiocholine as substrate preincubated for 5 mins followed by substrate addition and measured after 5 mins by Ellman's method relative to control; conditions: time 10.0 min
Chain of Cholinesterase (Equus caballus) (P81908 whole entry): as the sequence (P81908 whole entry) above

[25] = target: Acetylcholinesterase (Electrophorus electricus, UniProt O42275); assay: Inhibition of electric eel AChE using acetylthiocholine as substrate preincubated for 5 mins followed by substrate addition and measured after 5 mins by Ellman's method
Chain of Acetylcholinesterase (O42275 whole entry): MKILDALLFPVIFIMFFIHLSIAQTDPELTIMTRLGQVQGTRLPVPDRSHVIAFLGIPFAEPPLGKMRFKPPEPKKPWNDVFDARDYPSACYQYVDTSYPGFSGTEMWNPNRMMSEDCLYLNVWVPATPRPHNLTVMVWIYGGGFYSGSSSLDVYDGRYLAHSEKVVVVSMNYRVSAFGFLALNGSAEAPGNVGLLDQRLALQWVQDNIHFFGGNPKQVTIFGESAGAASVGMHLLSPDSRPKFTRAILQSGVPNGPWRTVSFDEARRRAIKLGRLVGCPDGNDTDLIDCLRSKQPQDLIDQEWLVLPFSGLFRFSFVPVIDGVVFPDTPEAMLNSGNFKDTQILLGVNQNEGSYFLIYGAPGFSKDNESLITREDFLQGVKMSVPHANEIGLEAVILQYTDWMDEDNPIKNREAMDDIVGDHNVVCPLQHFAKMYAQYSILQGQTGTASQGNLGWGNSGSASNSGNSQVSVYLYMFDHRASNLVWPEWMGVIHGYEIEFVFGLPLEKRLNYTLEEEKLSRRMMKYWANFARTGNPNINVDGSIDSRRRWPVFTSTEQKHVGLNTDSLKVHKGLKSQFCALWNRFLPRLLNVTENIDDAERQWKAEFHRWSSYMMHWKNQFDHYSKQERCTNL

[26] = target: Cholinesterase (Equus caballus) (UniProt P81908); assay: Noncompetitive inhibition of equine serum BuChE assessed as decrease in Vmax with constant Km using varying concentrations of BTC as substrate by Lineweaver-burk and Cornish-Bowden plot analysis

Row | SMILES | inhibition [1] | inhibition [2] | IC50 [8] | IC50 [9] | IC50 [10] | inhibition [11] | inhibition [12] | inhibition [15] | inhibition [16] | inhibition [17] | IC50 [21] | inhibition [24] | further results
1 | CC(C)c1cccc(CNC[C@@H](O)[C@H](Cc2ccccc2)NC(=O)CC(c2ccccc2)c2ccccc2)c1 | 20.5% | 24% | 0.65 µM | 0.5 µM | 4.6 µM |  |  |  |  |  |  |  | Activity [3]: Toxic; Activity [4]: Non-Toxic; remaining at 2 h [5]: 67.9%; inhibition (INH) [6]: Active; inhibition (INH) [7]: Active
2 | C[C@H](NC[C@@H](O)[C@H](Cc1ccccc1)NC(=O)CC(c1ccccc1)c1ccccc1)c1ccccc1 | 20.5% | < 10% | 8.86 µM |  |  | 36.4% | 74.1% | 69% | 55% | 66% |  |  | inhibition [13]: 59%; inhibition [14]: 51%; inhibition [18]: 73.1%; viability at 24 h, 10 µM ([19]; HT22 cells, read-out: Activity): 100%; viability at 24 h, 30 µM ([20]; HT22 cells, read-out: Activity): 50%
3 | CC(C)(C)CNC[C@@H](O)[C@H](Cc1ccccc1)NCC(c1ccccc1)c1ccccc1 | 34.7% | < 10% | 0.59 µM | 0.19 µM |  |  | 63.9% |  |  |  | 26.3 µM |  | IC50 [22]: 9.77 µM; IC50 [23]: 85.1 µM
4 | O=C(CC(c1ccccc1)c1ccccc1)N[C@@H](Cc1ccccc1)[C@@H](O)CNCc1cccc(C(F)(F)F)c1 | 20.5% | 36.8% |  |  | 8.3 µM | < 10% |  |  |  |  |  | 29.5% | 
5 | CC(C)(C)c1cccc(CNC[C@@H](O)[C@H](Cc2ccccc2)NC(=O)C(c2ccccc2)c2ccccc2)c1 | 20.5% |  | 0.06 µM | 0.02 µM | 5.9 µM |  |  | 55% | 55% | 82% | 11 µM |  | IC50 [25]: 2.86 µM; inhibition [26]: Active; Activity [19]: Non-Toxic; Activity [20]: Toxic; Activity [3]: Toxic; Activity [4]: Non-Toxic; remaining at 2 h [5]: 79.6%; inhibition (INH) [6]: Active; inhibition (INH) [7]: Active
6 | C[C@H](NC[C@@H](O)[C@H](Cc1ccccc1)NC(=O)C(c1ccccc1)c1ccccc1)c1ccccc1 | 20.5% | < 10% | 1.82 µM |  |  | 14.5% | 61.7% | 84% | 79% | 81% |  |  | inhibition [13]: 77%
7 | O=C(CC(c1ccccc1)c1ccccc1)N[C@@H](Cc1ccccc1)[C@H](O)CNCC(F)(F)F | 20.5% | < 10% |  |  |  | < 10% | 24.4% |  |  |  |  | 19.2% | 
8 | O=C(N[C@@H](Cc1ccccc1)[C@H](O)CNCC(F)(F)F)C(c1ccccc1)c1ccccc1 | 20.5% | < 10% |  |  | 15.4 µM | < 10% |  | 92% | 102% | 100% |  | 26.3% | inhibition [13]: 92%; inhibition [14]: 87%
9 | CC(C)(NC[C@@H](O)[C@H](Cc1ccccc1)NC(=O)C(c1ccccc1)c1ccccc1)c1ccccc1 | 20.5% | < 10% |  |  |  | < 10% | 76.1% |  |  |  |  | 45.9% | 
10 | O=C(CC(c1ccccc1)c1ccccc1)N[C@@H](Cc1ccccc1)[C@H](O)CNCC1CC1 | 20.5% | < 10% | 3.23 µM |  |  | 41.1% | < 10% | 51% |  | 83% | 39.8 µM |  | inhibition [14]: 60%; IC50 [22]: 35.5 µM
11 | CC(C)c1cccc(CNC[C@@H](O)[C@H](Cc2ccccc2)NC(=O)C(c2ccccc2)c2ccccc2)c1 | 20.5% |  | 0.5 µM | 0.08 µM |  |  | 66% |  |  |  |  |  | IC50 [25]: 5.13 µM
12 | CC(C)(C)c1ccc(CNCC(O)[C@H](Cc2ccccc2)NC(=O)CC(c2ccccc2)c2ccccc2)cc1 (single isomer, unassigned) | 20.5% | < 10% | 0.17 µM | 0.88 µM | 6.2 µM |  |  |  |  |  |  |  | Activity [19]: Non-Toxic; Activity [20]: Toxic
13 | O[C@@H](CNCc1ccccc1)[C@H](Cc1ccccc1)NCCC(c1ccccc1)c1ccccc1 | 34.7% | < 10% | 0.65 µM | 0.63 µM |  |  | 58% |  |  |  | 7.59 µM |  | IC50 [22]: 5.5 µM; IC50 [23]: 30.2 µM; inhibition [18]: 85.8%; Activity [19]: Toxic
